# Assay results: patent US11192893B2, “Pyrazoloquinazolinone antitumor agents” (The Rockefeller University, priority 2017, dated 2021)
# Tested on: Hedgehog pathway activity
# Assay: Shh-Light luciferase reporter assay of Hedgehog pathway activity (Shh-Light2 cells, SAG-stimulated)
# Assay type: cell-based
# Conditions: for activity at 2 µM: 2 μM compound, read-out: SHH-light % residual @ 2 μM; for activity at 2 µM / activity at 20 µM: SAG 500 nM; for activity at 20 µM: 20 μM compound, read-out: SHH-light % residual @ 20 μM; for IC50: Table 2, SAG 500 nM, 28-32 hr treatment, read-out: Shh-light IC50
# Description: To examine the inhibition of dynein 2 in cell-based assays, an established luciferase reporter-based cellular assay of Hedgehog pathway activity was employed [Taipale et al., Nature. 2000; 406(6799): 1005-9]. Signaling in this pathway depends on the function of dynein 2. In this setting, expression of luciferase driven by Hedgehog pathway activity was inhibited by compound 5 with an IC50 value of 0.9±0.5 μM. […] The potencies of these compounds in this cell-based assay match the rank-order of dynein 2 inhibition in vitro. In these assays, Hedgehog pathway activity was stimulated using the Synthetic Agonist of Smoothened (SAG). This compound competes with many Hedgehog pathway inhibitors for binding to Smoothened, a key node in the signaling pathway.
# SHH-Light Assay (Steinman et al. eLife 2017; 6:e25174.)
# NIH-3T3 cells stably expressing a luciferase reporter downstream of a Gli binding site (Shh-Light2 cells, RRID: CVCL_2721) were maintained in DMEM with 10% bovine calf serum (BCS). Cells were seeded at a density of 30,000 cells/well in 96-well tissue culture-treated plates (Corning, cat #353072) in 100 μL in DMEM+10% BCS, and incubated for 48 hr (Taipale et al., 2000). Wells were washed briefly with PBS. Next […] of low serum media (DMEM+0.5% BCS) containing smoothened agonist (SAG, 500 nM), and either solvent control (0.2% DMSO) or test compound (serial three-fold dilutions of each inhibitor starting from 20 μM) were added to the wells. After 28-32 hr of inhibitor treatment, cells were washed with 50 μL PBS and lysed for >30 min in 30 μL Passive Lysis Buffer (Promega Dual Luciferase kit, cat E1910). 5 uL of each lysate was transferred to white, solid-bottom 96-well plates (Greiner, cat #655075), followed by rapid addition (within 30 s) of 30 μL of Luciferase Assay Reagent using a multichannel pipette. Luminescence for each condition was read using a Synergy Neo plate reader (5 s integration time per well). Cell line identity was confirmed by measurement of the degree of response to Hedgehog pathway stimulation by the synthetic agonist SAG and using previously published values from our groups and others as references (Firestone et al., 2012; Hyman et al., 2009).
IC50 [µM],Structure (SMILES),activity at 2 µM [%],activity at 20 µM [%]
2,"COc1c(Cl)ccc2c(=O)n3nc(-c4ccc(Cl)cc4Cl)c(C#N)c3[nH]c12 [Example 38, 6-Chloro-2-(2,4-dichlorophenyl)-5-methoxy-9-oxo-4H-pyrazolo[5,1-b]quinazoline-3-carbonitrile]",74,19
13,"COc1ccc2[nH]c3c(C(N)=O)c(-c4ccc(Cl)cc4Cl)nn3c(=O)c2c1 [Example 39, 2-(2,4-Dichlorophenyl)-7-methoxy-9-oxo-4H-pyrazolo[5,1-b]quinazoline-3-carboxamide]",,121
0.594,"COc1ccc2[nH]c3c(C#N)c(-c4ccc(Cl)cc4Cl)nn3c(=O)c2c1 [Example 40, 2-(2,4-Dichlorophenyl)-7-methoxy-9-oxo-4H-pyrazolo[5,1-b]quinazoline-3-carbonitrile]",37,14
,"NC(=O)c1c(COc2ccc(Cl)cc2)nn2c(=O)c3ccccc3[nH]c12 [Example 41, 2-[(4-Chlorophenoxy)methyl]-9-oxo-4H-pyrazolo[5,1-b]quinazoline-3-carboxamide]",73.7,
,"N#Cc1c(COc2ccc(Cl)cc2)nn2c(=O)c3ccccc3[nH]c12 [Example 42, 2-[(4-Chlorophenoxy)methyl]-9-oxo-4H-pyrazolo[5,1-b]quinazoline-3-carbonitrile]",105,4.5
,"NC(=O)c1c(CCC(Cl)(Cl)Cl)nn2c(=O)c3ccccc3[nH]c12 [Example 43, 9-Oxo-2-(3,3,3-trichloropropyl)-4,9-dihydropyrazolo[5,1-b]quinazoline-3-carboxamide]",65,15.4
,"N#Cc1c(CCC(Cl)(Cl)Cl)nn2c(=O)c3ccccc3[nH]c12 [Example 44, 9-Oxo-2-(3,3,3-trichloropropyl)-4H-pyrazolo[5,1-b]quinazoline-3-carbonitrile]",45.8,3.4
,"NC(=O)c1c(CC2CCCCC2)nn2c(=O)c3ccccc3[nH]c12 [Example 45, 2-(Cyclohexylmethyl)-9-oxo-4H-pyrazolo[5,1-b]quinazoline-3-carboxamide]",82.4,4
,"N#Cc1c(CC2CCCCC2)nn2c(=O)c3ccccc3[nH]c12 [Example 46, 2-(Cyclohexylmethyl)-9-oxo-4H-pyrazolo[5,1-b]quinazoline-3-carbonitrile]",67.1,5
,"NC(=O)c1c(CCOc2ccc(Cl)cc2)nn2c(=O)c3ccccc3[nH]c12 [Example 47, 2-[2-(4-Chlorophenoxy)ethyl]-9-oxo-4H-pyrazolo[5,1-b]quinazoline-3-carboxamide]",54.7,11
,"N#Cc1c(CCOc2ccc(Cl)cc2)nn2c(=O)c3ccccc3[nH]c12 [Example 48, 2-[2-(4-Chlorophenoxy)ethyl]-9-oxo-4H-pyrazolo[5,1-b]quinazoline-3-carbonitrile]",75.5,10.9
,"NC(=O)c1c(-c2ccc(Cl)cc2Cl)nn2c(=O)c3c(OCc4ccccc4)cccc3[nH]c12 [Example 49, 8-Benzyloxy-2-(2,4-dichlorophenyl)-9-oxo-4H-pyrazolo[5,1-b]quinazoline-3-carboxamide]",78.3,10.8
,"N#Cc1c(-c2ccc(Cl)cc2Cl)nn2c(=O)c3c(OCc4ccccc4)cccc3[nH]c12 [Example 50, 8-Benzyloxy-2-(2,4-dichlorophenyl)-9-oxo-4H-pyrazolo[5,1-b]quinazoline-3-carbonitrile]",75.8,
,"NC(=O)c1c(C2CCC(F)(F)CC2)nn2c(=O)c3ccccc3[nH]c12 [Example 51, 2-(4,4-Difluorocyclohexyl)-9-oxo-4H-pyrazolo[5,1-b]quinazoline-3-carboxamide]",92.4,103
,"N#Cc1c(C2CCC(F)(F)CC2)nn2c(=O)c3ccccc3[nH]c12 [Example 52, 2-(4,4-Difluorocyclohexyl)-9-oxo-4H-pyrazolo[5,1-b]quinazoline-3-carbonitrile]",110,76.9
,"NC(=O)c1c(CC2CC2)nn2c(=O)c3ccccc3[nH]c12 [Example 53, 2-(Cyclopropylmethyl)-9-oxo-4H-pyrazolo[5,1-b]quinazoline-3-carboxamide]",75.2,123

IC50 [µM],Structure (SMILES),activity at 2 µM [%],activity at 20 µM [%]
,"N#Cc1c(CC2CC2)nn2c(=O)c3ccccc3[nH]c12 [Example 54, 2-(Cyclopropylmethyl)-9-oxo-4H-pyrazolo[5,1-b]quinazoline-3-carbonitrile]",81.7,
,"NC(=O)c1c(-c2ccc(Cl)cc2Cl)nn2c(=O)c3cc(OCc4ccccc4)ccc3[nH]c12 [Example 55, 7-Benzyloxy-2-(2,4-dichlorophenyl)-9-oxo-4H-pyrazolo[5,1-b]quinazoline-3-carboxamide]",62.8,
,"N#Cc1c(-c2ccc(Cl)cc2Cl)nn2c(=O)c3cc(OCc4ccccc4)ccc3[nH]c12 [Example 56, 7-Benzyloxy-2-(2,4-dichlorophenyl)-9-oxo-4H-pyrazolo[5,1-b]quinazoline-3-carbonitrile]",49.6,
,"NC(=O)c1c(CCC(F)(F)F)nn2c(=O)c3ccccc3[nH]c12 [Example 57, 9-Oxo-2-(3,3,3-trifluoropropyl)-4H-pyrazolo[5,1-b]quinazoline-3-carboxamide]",67.9,
,"N#Cc1c(CCC(F)(F)F)nn2c(=O)c3ccccc3[nH]c12 [Example 58, 9-Oxo-2-(3,3,3-trifluoropropyl)-4H-pyrazolo[5,1-b]quinazoline-3-carbonitrile]",55.5,35.1
,"N#Cc1c(C2(C(F)(F)F)CC2)nn2c(=O)c3ccccc3[nH]c12 [Example 59, 9-Oxo-2-[1-(trifluoromethyl)cyclopropyl]-4H-pyrazolo[5,1-b]quinazoline-3-carbonitrile]",89.3,45.1
,"NC(=O)c1c(CCCO)nn2c(=O)c3ccccc3[nH]c12 [Example 60, 2-(3-Hydroxypropyl)-9-oxo-4H-pyrazolo[5,1-b]quinazoline-3-carboxamide]",78.1,99
,"O=C(O)c1c(-c2ccc(Cl)cc2Cl)nn2c1[nH]c(=O)c1ccccc12 [Example 61, 2-(2,4-Dichlorophenyl)-5-oxo-4H-pyrazolo[1,5-a]quinazoline-3-carboxylic acid]",,66.7
,"NC(=O)c1c(-c2ccc(Cl)cc2Cl)nn2c1[nH]c(=O)c1ccccc12 [Example 62, 2-(2,4-Dichlorophenyl)-5-oxo-4H-pyrazolo[1,5-a]quinazoline-3-carboxamide]",,42.1
,"COc1ccc2c(c1)c(=O)[nH]c1c(C#N)c(C3(c4ccc(Cl)cc4)CC3)nn12 [Example 64, 2-[1-(4-Chlorophenyl)cyclopropyl]-7-methoxy-5-oxo-4H-pyrazolo[1,5-a]quinazoline-3-carbonitrile]",91.6,90.4
,"COc1ccc2c(c1)c(=O)[nH]c1c(C#N)c(-c3ccc(Cl)cc3Cl)nn12 [Example 65, 2-(2,4-Dichlorophenyl)-7-methoxy-5-oxo-4H-pyrazolo[1,5-a]quinazoline-3-carbonitrile]",76.9,-1
1.5,"N#Cc1ccc2c(c1)c(=O)[nH]c1c(C#N)c(C3(c4ccc(Cl)cc4)CC3)nn12 [Example 66, 2-[1-(4-Chlorophenyl)cyclopropyl]-5-oxo-4H-pyrazolo[1,5-a]quinazoline-3,7-dicarbonitrile]",39.6,-3.8
,"COC(=O)c1c(-c2ccc(Cl)cc2Cl)nn2c(=O)c3ccccc3[nH]c12 [Example 67, Methyl 2-(2,4-dichlorophenyl)-9-oxo-4H-pyrazolo[5,1-b]quinazoline-3-carboxylate]",,80.3
,"CC(C)OC(=O)c1c(-c2ccc(Cl)cc2Cl)nn2c(=O)c3ccccc3[nH]c12 [Example 68, Isopropyl 2-(2,4-dichlorophenyl)-9-oxo-4H-pyrazolo[5,1-b]quinazoline-3-carboxylate]",90.5,110
,"O=c1c2ccc(Cl)cc2[nH]c2cc(-c3ccc(Cl)cc3Cl)nn12 [Example 69, 6-Chloro-2-(2,4-dichlorophenyl)-4H-pyrazolo[5,1-b]quinazolin-9-one]",75,65.4
,"O=c1c2ccccc2[nH]c2cc(-c3ccc(Cl)cc3Cl)nn12 [Example 70, 2-(2,4-Dichlorophenyl)-4H-pyrazolo[5,1-b]quinazolin-9-one]",109,113
